Tested on: primary skin fibroblasts
Assay: In vitro wound closure (migration) test in confluent fibroblast cultures
Assay type: cell-based, mouse
Details: medium (DMEM with 2% FBS) supplemented with 25 ng/ml; syndecan-4+/+, +/- and -/- fibroblasts
Description: Primary skin fibroblasts were isolated from newborn syndecan-4+/+, syndecan-4+/−, and syndecan-4−/− mice from the same litter. Mice were sacrificed, and their skins were removed, flattened, and floated on a 0.25% trypsin solution (Life Technologies Inc., Gaithersburg, Md., USA) at 4° C. overnight. The dermis was separated from the epidermis and dissociated by stirring at room temperature for 30 minutes in HBSS containing collagenase (500 μg/ml) (Life Technologies Inc.). The cell suspension of each skin was passed through a cell strainer (Becton Dickinson and Co., Franklin Lakes, N.J., USA) and transferred to a 10-cm cell culture dish and cultured as described previously (Saoncella et al.1999. Proc. Natl. Acad. Sci. USA. 96:2805-2810). Dermal fibroblasts were maintained at subconfluent densities and used between passages three and six.
Primary fibroblast cultures were established for 2 days in DMEM with 10% FBS followed by an overnight culture in DMEM with 2% FBS. In vitro wound closure tests were performed by creating clear lines in confluent cultures with a sterile yellow plastic pipette tip. After two washes with medium, the monolayers were covered with fresh medium and the migration of the cells into the cleared spaces was monitored over time. The control medium used during wound closure was DMEM with 2% FBS. […]

| Substance | rate of wound closure |
| --- | --- |
| EGF: growth factor (Becton Dickinson) added to culture medium (NSDSECPLSHDGYCLHDGVCMYIEALDKYACNCVVGYIGERCQYRDLKWWELR; Epidermal growth factor; UniProt P01133 971-1023, looked up) | did not alter the rate of wound closure |
| FGF-2: growth factor, ligand of the FGF-2 receptor (R&D Systems), added to culture medium | did not alter the rate of wound closure |

— patent publication US20020048585A1, “Methods of modulating wound healing and angiogenesis” (priority 2000, published 2002)
